According to patent US20250120988A1, “SMALL MOLECULE COMPOUND FOR TREATING ISCHEMIC STROKE, ITS PREPARATION METHOD, AND APPLICATION” (SHANGHAI SIXTH PEOPLE'S HOSPITAL, priority 2023, published 2025):

Test system: primary cortical neurons
Assay: Calcein-PI cell death staining of primary neurons under oxygen-glucose deprivation (OGD)
Assay type: cell-based, mice
Conditions: 10 μM; primary cultured neurons; OGD 1 hour, pH 7.0
Protocol: Figure a illustrates cortical neurons staining from wild-type (ASIC1a+/+) and gene-deficient (ASIC1a−/−) mice primary cultures in the calcein-PI staining experiment. Blue green represents viable cells, and red represents dead cell nuclei. 10 μM CGS19755 and 10 μM LK-2 were added respectively in the cell culture medium under pH 7.0 conditions with OGD to be treated for 1 hour. Figure c illustrates, after being treated in the same experimental groups as Figure a, the analysis of each group of LDH of relative release levels. Figure d illustrates PI staining of ASIC1a-transfected CHO cells after 1 hour of treatment with pH 7.0 and 500 μM glutamate (Glu). […]
Taking into consideration that in addition to ASIC1a, neurons also express multiple membrane proteins that can be activated and lead to cell death during OGD, in order to more accurately verify that cell death is caused by glutamate activation of ASIC1a and that LK-2 indeed competitively antagonizes the glutamate so as to reduce cell death, we conducted the following experiment: CHO cells transfected with ASIC1a-GFP were divided into a control group (500 μM glutamate) and a drug intervention group (500 μM glutamate+10 μM LK-2). […] Live and dead cell nuclei were determined by observing under a 40× objective using excitation wavelengths of 488 nm and 546 nm. The number of stained cell nuclei was counted using Image-J software.

**Q.** With O=C(O)C1CN(C(c2ccccc2)P(=O)(O)O)CCN1 (stereo not shown) [LK-2] as the molecule, how does the “reduction of cell death rate” value read?
**A.** The value was 87%.
